The assay relates to MCF7. Put plainly: Antiproliferative activity against human MCF7 cells by SRB assay. It counts as functional, cell-based.
In the case of `COc1cc(O[C@@H]2O[C@H](CO[C@@H]3OC[C@](O)(CO)[C@H]3O)[C@@H](O)[C@H](O)[C@H]2O)cc(OC)c1OC`, the IC50 (in general, the concentration needed to halve the response being measured) was > 20 µM.

For `CC(=O)O[C@@H]1C=C([C@H]2O[C@@H]3OC(O)C4=C[C@@H](OC(C)=O)[C@H]5C(C)(C)CCC[C@]5(C)[C@]43O2)[C@](O)(C=O)[C@@]2(C)CCCC(C)(C)[C@H]12` (some centres undefined), the IC50 is 0.6 µM. For the compound `CC1=C(C=O)[C@@]2(C)CCCC(C)(C)[C@@H]2CC1=O`, the IC50 is > 20 µM.

Regarding `CC(=O)O[C@@H]1C=C2C(=O)O[C@@H]3O[C@H](C4=C[C@@H](OC(C)=O)[C@H]5C(C)(C)CCC[C@]5(C)C4=O)O[C@@]23[C@@]2(C)CCCC(C)(C)[C@H]12`, half-maximal inhibition (IC50) was put at 3.7 µM. As for `COc1ccc(O[C@@H]2O[C@H](CO[C@@H]3OC[C@](O)(CO)[C@H]3O)[C@@H](O)[C@H](O)[C@H]2O)cc1OC`, the IC50 is > 20 µM. `CC(=O)O[C@@H]1C=C([C@H]2O[C@@H]3OC(=O)C4=C[C@@H](OC(C)=O)[C@H]5C(C)(C)CCC[C@]5(C)[C@]43O2)[C@](O)(C=O)[C@@]2(C)CCCC(C)(C)[C@H]12` registered an IC50 of 2 µM. In other words, the single-digit micromolar range. Turning to `C[C@@H]1O[C@@H](OC[C@H]2O[C@@H](OC(=O)[C@@]3(C)CCC[C@]4(C)C5=C(COC5=O)[C@@H](O)C[C@@H]34)[C@H](O)[C@@H](O)[C@@H]2O)[C@H](O)[C@H](O)[C@H]1O`, the IC50 was > 20 µM. Consider `Cc1ccc2c(c1)C(C(C)C)CCC2=O` (centres undefined), for which the IC50 is > 20 µM. `CC(=O)O[C@@H]1C=C(C=O)[C@@](O)(C=O)[C@@]2(C)CCCC(C)(C)[C@H]12`: half-maximal inhibition (IC50) was put at 1.6 µM. This counts as single-digit micromolar.

`CC[C@@]1(O)C(=O)OCc2c1cc1n(c2=O)Cc2cc3ccccc3nc2-1` [CAMPTOTHECIN] returned an IC50 of 0.03 µM. With `CC1(C)CCC[C@]2(C)[C@H]3COC(=O)C3=CC[C@@H]12` [CINNAMOLIDE], the IC50 was > 20 µM. `CC(=O)O[C@@H]1C=C2C(=O)OC[C@]2(O)[C@@]2(C)CCCC(C)(C)[C@H]12` [CINNAMOSMOLIDE] returned an IC50 of 1.3 µM. This counts as single-digit micromolar. On to `O=Cc1ccc(O[C@@H]2O[C@H](CO)[C@@H](O)[C@@H](O)[C@H]2O)cc1` [HELICIDE], for which the IC50 is > 20 µM.

Take `CC1(C)CCC[C@]2(C)[C@@H](C=O)C(C=O)=CC[C@@H]12` [POLYGODIAL]: the midpoint of inhibition, the IC50, lay at 12.4 µM.

Values taken from ChEMBL document CHEMBL4007466, “Bioactive drimane sesquiterpenoids and aromatic glycosides from Cinnamosma fragrans” (Bioorg Med Chem Lett, 2017).
